Data published in US10988477B2 (Merck Patent GmbH, priority 2018, dated 2021).

What was measured:
GCN2 kinase = GCN2 kinase (Homo sapiens, UniProt Q9P2K8); assay: GCN2 enzyme inhibition assay (Transcreener ADP2 fluorescence polarization); format: biochemical; conditions: compounds of Formula II; 280 μM ATP, 4 nM GCN2 kinase
How it was run: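 Kinase activity is followed as ADP formation, measured by fluorescence polarization, using 4 nM enzyme with 280 μM ATP and 200 μM (RS)7 peptide at pH 7.5 and 25 °C for 1 h. Values come from a non-linear tight-binding fit.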

[1] = biological target: intracellular GCN2 (phosphorylation of the GCN2 substrate eIF2α) (Homo sapiens, UniProt Q9P2K8); assay: GCN2 cellular inhibition assay (AlphaScreen SureFire P-eIF2α Ser51, borrelidin-treated U2OS cells); format: cell-based; conditions: compounds of Formula II; biomarker assay, phosphorylated eIF2α Ser51 in borrelidin-treated U2OS cells
How it was run: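 U2OS, overnight attach; cpd 4-fold serial dil. from 40 μM final; borrelidin 10 μM, 1 h 37 °C/5% CO2; lyse; AlphaScreen P-eIF2α Ser51 (acceptor 2 h, donor overnight, RT, dark); % inhib. vs borrelidin-only.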

Sequence of GCN2 kinase (Q9P2K8 whole entry): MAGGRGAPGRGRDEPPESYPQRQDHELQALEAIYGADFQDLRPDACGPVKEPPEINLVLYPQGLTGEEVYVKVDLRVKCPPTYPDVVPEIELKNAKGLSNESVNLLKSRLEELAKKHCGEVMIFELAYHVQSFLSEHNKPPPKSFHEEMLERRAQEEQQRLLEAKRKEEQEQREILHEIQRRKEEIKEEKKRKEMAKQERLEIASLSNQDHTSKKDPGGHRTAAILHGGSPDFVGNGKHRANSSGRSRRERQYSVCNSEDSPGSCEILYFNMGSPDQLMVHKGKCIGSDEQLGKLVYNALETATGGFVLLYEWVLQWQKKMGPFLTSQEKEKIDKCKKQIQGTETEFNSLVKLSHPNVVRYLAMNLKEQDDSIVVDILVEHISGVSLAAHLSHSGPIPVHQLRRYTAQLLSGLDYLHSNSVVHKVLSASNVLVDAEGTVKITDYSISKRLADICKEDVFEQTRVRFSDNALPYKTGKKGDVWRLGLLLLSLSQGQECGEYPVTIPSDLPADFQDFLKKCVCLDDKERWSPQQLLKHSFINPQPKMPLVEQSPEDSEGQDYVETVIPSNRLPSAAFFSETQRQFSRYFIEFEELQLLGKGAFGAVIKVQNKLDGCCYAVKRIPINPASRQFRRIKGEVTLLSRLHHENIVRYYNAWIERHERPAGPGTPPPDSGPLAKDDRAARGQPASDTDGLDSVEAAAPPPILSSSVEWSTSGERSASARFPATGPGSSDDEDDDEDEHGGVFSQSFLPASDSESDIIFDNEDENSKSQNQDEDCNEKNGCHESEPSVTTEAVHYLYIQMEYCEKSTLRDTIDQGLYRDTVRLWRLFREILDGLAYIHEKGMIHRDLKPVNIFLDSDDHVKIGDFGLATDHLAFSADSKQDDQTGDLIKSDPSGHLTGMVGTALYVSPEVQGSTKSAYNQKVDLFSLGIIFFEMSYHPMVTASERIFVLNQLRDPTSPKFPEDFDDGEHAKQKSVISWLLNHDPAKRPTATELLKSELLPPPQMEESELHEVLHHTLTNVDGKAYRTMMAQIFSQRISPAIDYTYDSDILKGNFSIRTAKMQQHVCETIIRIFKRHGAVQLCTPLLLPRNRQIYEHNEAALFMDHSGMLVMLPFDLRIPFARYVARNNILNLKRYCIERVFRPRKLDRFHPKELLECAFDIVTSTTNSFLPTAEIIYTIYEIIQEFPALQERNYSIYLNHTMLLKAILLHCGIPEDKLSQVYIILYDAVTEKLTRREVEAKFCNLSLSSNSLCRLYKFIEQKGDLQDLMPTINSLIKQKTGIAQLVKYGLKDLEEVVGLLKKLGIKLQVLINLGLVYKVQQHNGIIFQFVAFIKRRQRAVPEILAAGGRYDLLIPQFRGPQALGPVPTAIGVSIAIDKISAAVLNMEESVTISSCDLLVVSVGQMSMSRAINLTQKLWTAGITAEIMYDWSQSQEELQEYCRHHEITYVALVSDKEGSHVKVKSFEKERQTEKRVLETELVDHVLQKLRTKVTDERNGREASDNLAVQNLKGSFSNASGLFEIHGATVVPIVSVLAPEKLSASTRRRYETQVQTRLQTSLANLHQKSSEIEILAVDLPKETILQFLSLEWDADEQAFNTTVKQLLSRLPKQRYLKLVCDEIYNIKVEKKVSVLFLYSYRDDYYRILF
Sequence of intracellular GCN2 (phosphorylation of the GCN2 substrate eIF2α) (Q9P2K8 whole entry): as above

Row | Compound | Ki (GCN2 kinase) | IC50 [1]
1 | CS(=O)(=O)CCN1CCCC(c2cc(-c3cnc4ccc(C(F)F)nn34)ncn2)C1 (centres unmarked) [II-48, 6-(Difluoromethyl)-3-(6-(1-(2-(methylsulfonyl)ethyl)piperidin-3-yl)pyrimidin-4-yl)imidazo[1,2-b]pyridazine] | 10 to 1000 nM | > 5000 nM
2 | NC(=O)C1CN(c2cc(-c3cnc4ccc(C(F)F)nn34)ncn2)CCO1 (centres unmarked) [II-50, 4-(6-(6-(Difluoromethyl)imidazo[1,2-b]pyridazin-3-yl)pyrimidin-4-yl)morpholine-2-carboxamide] | 10 to 1000 nM | 500 to 5000 nM
3 | O=C1NCCC12CCCN(c1cc(-c3cnc4ccc(C(F)F)nn34)ncn1)C2 (centres unmarked) [II-51, 7-(6-(6-(Difluoromethyl)imidazo[1,2-b]pyridazin-3-yl)pyrimidin-4-yl)-2,7-diazaspiro[4.5]decan-1-one] | 10 to 1000 nM | 500 to 5000 nM
4 | O=C1CC2(CCN(c3cc(-c4cnc5ccc(C(F)F)nn45)ncn3)CC2)N1 [II-52, 7-(6-(6-(Difluoromethyl)imidazo[1,2-b]pyridazin-3-yl)pyrimidin-4-yl)-1,7-diazaspiro[3.5]nonan-2-one] | 10 to 1000 nM | > 5000 nM
5 | Cc1cnc(-c2cnc3ccc(C(F)F)nn23)cc1N1CCCC(CNS(C)(=O)=O)C1 (centres unmarked) [II-53, N-((1-(2-(6-(Difluoromethyl)imidazo[1,2-b]pyridazin-3-yl)-5-methylpyridin-4-yl)piperidin-3-yl)methyl)methanesulfonamide] | < 10 nM | 500 to 5000 nM
6 | CS(=O)(=O)N1CCC2(CCN(c3cc(-c4cnc5ccc(C(F)F)nn45)ncn3)C2)CC1 [II-54, 2-(6-(6-(Difluoromethyl)imidazo[1,2-b]pyridazin-3-yl)pyrimidin-4-yl)-8-(methylsulfonyl)-2,8-diazaspiro[4.5]decane] | 10 to 1000 nM | 500 to 5000 nM
7 | CC(=O)N1CC2(C1)CN(c1cc(-c3cnc4ccc(C(F)F)nn34)cc(N3CCCC(CNS(C)(=O)=O)C3)n1)C2 (centres unmarked) [II-55, N-((1-(6-(6-Acetyl-2,6-diazaspiro[3.3]heptan-2-yl)-4-(6-(difluoromethyl)imidazo[1,2-b]pyridazin-3-yl)pyridin-2-yl)piperidin-3-yl)methyl)methanesulfonamide] | < 10 nM | < 500 nM
8 | CS(=O)(=O)N1CCC2(CCCN(c3cc(-c4cnc5ccc(C(F)F)nn45)ncn3)C2)C1 (centres unmarked) [II-56, 7-(6-(6-(Difluoromethyl)imidazo[1,2-b]pyridazin-3-yl)pyrimidin-4-yl)-2-(methylsulfonyl)-2,7-diazaspiro[4.5]decane] | 10 to 1000 nM | 500 to 5000 nM
9 | CNc1cc(N2CCCC(CNS(C)(=O)=O)C2)cc(-c2cnc3ccc(C(F)F)nn23)n1 (centres unmarked) [II-60, N-((1-(2-(6-(Difluoromethyl)imidazo[1,2-b]pyridazin-3-yl)-6-(methylamino)pyridin-4-yl)piperidin-3-yl)methyl)methanesulfonamide] | < 10 nM | < 500 nM
10 | CS(=O)(=O)NCC1CCCN(c2cc(-c3cnc4ccc(C(F)F)nn34)cc(N3CCOCC3)n2)C1 (centres unmarked) [II-66, N-((1-(4-(6-(Difluoromethyl)imidazo[1,2-b]pyridazin-3-yl)-6-morpholinopyridin-2-yl)piperidin-3-yl)methyl)methanesulfonamide] | < 10 nM | 500 to 5000 nM
11 | CS(=O)(=O)NCC1CCCN(c2cc(-c3cnc4ccc(C(F)F)nn34)cc(N3CC4(CCN4)C3)n2)C1 (centres unmarked) [II-67, N-((1-(4-(6-(Difluoromethyl)imidazo[1,2-b]pyridazin-3-yl)-6-(1,6-diazaspiro[3.3]heptan-6-yl)pyridin-2-yl)piperidin-3-yl)methyl)methanesulfonamide] | < 10 nM | < 500 nM

Continued, values first:

Row | Ki (GCN2 kinase) | IC50 [1] | Compound
12 | 10 to 1000 nM | 500 to 5000 nM | Cc1ncc(-c2cnc3ccc(C(F)F)nn23)cc1N1CCCC(CNS(C)(=O)=O)C1 (centres unmarked) [II-49, N-((1-(5-(6-(Difluoromethyl)imidazo[1,2-b]pyridazin-3-yl)-2-methylpyridin-3-yl)piperidin-3-yl)methyl)methanesulfonamide]
13 | < 10 nM | 500 to 5000 nM | CC1CN(c2cc(-c3cnc4ccc(C(F)F)nn34)ccn2)CC(CNS(C)(=O)=O)C1(F)F (centres unmarked) [II-57, N-((1-(4-(6-(Difluoromethyl)imidazo[1,2-b]pyridazin-3-yl)pyridin-2-yl)-4,4-difluoro-5-methylpiperidin-3-yl)methyl)methanesulfonamide]
14 | < 10 nM | < 500 nM | CC1CN(c2cc(-c3cnc4ccc(C(F)F)nn34)ccn2)CC(CNS(C)(=O)=O)C1(F)F (centres unmarked) [II-58, N-((1-(4-(6-(Difluoromethyl)imidazo[1,2-b]pyridazin-3-yl)pyridin-2-yl)-4,4-difluoro-5-methylpiperidin-3-yl)methyl)methanesulfonamide]
15 | < 10 nM | < 500 nM | CS(=O)(=O)NCC1CCCN(c2cc(-c3cnc4ccc(C(F)F)nn34)ncn2)C1 (centres unmarked) [II-59, N-((1-(6-(6-(Difluoromethyl)imidazo[1,2-b]pyridazin-3-yl)pyrimidin-4-yl)piperidin-3-yl)methyl)methanesulfonamide]
16 | < 10 nM | 500 to 5000 nM | CS(=O)(=O)NCC1CCCN(c2cc(-c3cnc4ccc(C(F)F)nn34)cc(Cl)n2)C1 (centres unmarked) [II-61, N-((1-(6-Chloro-4-(6-(difluoromethyl)imidazo[1,2-b]pyridazin-3-yl)pyridin-2-yl)piperidin-3-yl)methyl)methanesulfonamide]
17 | 10 to 1000 nM | > 5000 nM | O=C1CN(c2cc(-c3cnc4ccc(C(F)F)nn34)ccn2)CCN1 [II-62, 4-(4-(6-(Difluoromethyl)imidazo[1,2-b]pyridazin-3-yl)pyridin-2-yl)piperazin-2-one]
18 | < 10 nM | > 5000 nM | CS(=O)(=O)NCC1CCCN(c2cc(-c3cnc4ccc(C(F)F)nn34)cc(C(F)(F)F)n2)C1 (centres unmarked) [II-63, N-((1-(4-(6-(Difluoromethyl)imidazo[1,2-b]pyridazin-3-yl)-6-(trifluoromethyl)pyridin-2-yl)piperidin-3-yl)methyl)methanesulfonamide]
19 | < 10 nM | < 500 nM | CNc1cc(-c2cnc3ccc(C(F)F)nn23)cc(N2CC(C)C(F)(F)C(CNS(C)(=O)=O)C2)n1 (centres unmarked) [II-64, N-((1-(4-(6-(Difluoromethyl)imidazo[1,2-b]pyridazin-3-yl)-6-(methylamino)pyridin-2-yl)-4,4-difluoro-5-methylpiperidin-3-yl)methyl)methanesulfonamide]
20 | < 10 nM | 500 to 5000 nM | CNc1cc(-c2cnc3ccc(C(F)F)nn23)cc(N2CC(C)C(F)(F)C(CNS(C)(=O)=O)C2)n1 (centres unmarked) [II-65, N-((1-(4-(6-(Difluoromethyl)imidazo[1,2-b]pyridazin-3-yl)-6-(methylamino)pyridin-2-yl)-4,4-difluoro-5-methylpiperidin-3-yl)methyl)methanesulfonamide]
21 | < 10 nM | 500 to 5000 nM | CNc1cc(-c2cnc3ccc(C(F)F)nn23)cc(N2CCC[C@H](CNS(C)(=O)=O)C2)n1 [II-68, (S)—N-((1-(4-(6-(Difluoromethyl)imidazo[1,2-b]pyridazin-3-yl)-6-(methylamino)pyridin-2-yl)piperidin-3-yl)methyl)methanesulfonamide]
22 | < 10 nM | < 500 nM | CNc1cc(-c2cnc3ccc(C(F)F)nn23)cc(N2CCO[C@H](CNS(C)(=O)=O)C2)n1 [II-69, (S)—N-((4-(4-(6-(Difluoromethyl)imidazo[1,2-b]pyridazin-3-yl)-6-(methylamino)pyridin-2-yl)morpholin-2-yl)methyl)methanesulfonamide]
